Source: PMC10622577, “Structural basis for stabilisation of the RAD51 nucleoprotein filament by BRCA2” (Nature Communications, 2023)

How the values were obtained:
RAD51 D184A, D187A NPFs = assay: EMSA of TR2 titration on RAD51 D184A, D187A NPFs; assay type: binding, human
Method: (§1) To assess RAD51 nucleoprotein (NPF) formation, wild-type and mutant RAD51 proteins were incubated with DNA in buffer: 25 mM HEPES pH 7.5, 150 mM NaCl, 2 mM DTT, 2 mM ATP, 5 mM CaCl2 for 15 minutes at room temperature. For filament binding of the TR2 peptide or His6-MBP-TR2 protein, the RAD51 NPFs were incubated with TR2 for further 5 minutes at room temperature. For filament binding of BRC4, the BRC4 peptide was pre-mixed with RAD51 for 10 minutes at room temperature before addition of DNA. For experiments with mono-streptavidin (mSA)-capped DNA, mSA (Sigma) was added in 5× molar excess of biotin labels for 15 minutes at room temperature prior to the addition of RAD51. Concentrations are provided in figures and DNA sequences for each experiment are reported in Supplementary Table 1.
(§2) Before electrophoresis, samples were mixed with a 0.5:1 volume of 50% (w/v) sucrose solution and analysed on a pre-run 0.5% (w/v) agarose gel in 0.5× TB buffer at 35 V for 2.5 hours at 4 °C. DNA was visualised by excitation of the fluorescent tag or, in the case of unlabelled DNA, by SYBR Gold staining. Gels were imaged in a Typhoon FLA9000 by excitation at 473 nm for fluorescein-labelled DNA or SYBR Gold-stained gels, 532 nm excitation for Cy3-labelled DNA or 635 nm excitation for Cy5-labelled DNA.
(§3) Supplementary table 1. DNA oligos and peptides
(§4) Oligos Size (nt) Sequence (5’ – 3’)
D184A […] (forward),
D184A, D187A […] (forward),
EMSA, SPR, CryoEM (micrographs,
Panels C, D (ssDNA) 60 FAM-[…]
Panels C, D (dsDNA) 60 FAM-[…],
Panels E, F (ssDNA) 60 Biotin-[…]
Panels E, F (dsDNA) 60 Biotin-[…],
Supplementary figs. 3, 4 (ssDNA) 60 Biotin-[…]
Supplementary figs. 3, 4 (dsDNA) 60 Biotin-[…],
Panel A (ssDNA) 32 Cy5-[…]
Panel B (dsDNA) 50 […]-Cy3,
Panel B (ssDNA) 60 Biotin-[…]-
Panel B (dsDNA) 60 Biotin,
Panel C (ssDNA) 32 Biotin-[…]-Biotin
Panel C (dsDNA) 50 Biotin-[…]-Cy3,
Supplementary fig. 5A 50 […]-Cy3,
Supplementary fig. 5B (ssDNA) 32 Cy5-[…]-Biotin,
Supplementary fig. 5B (ssDNA) 32 Biotin-[…]-Biotin
Supplementary fig. 5B (dsDNA) 50 Biotin-[…],
Panels B, C, D (ssDNA) 60 FAM-[…]
Panels F, G (ssDNA) 60 […]

[1] = test system: RAD51 nucleoprotein filaments; details: cited from earlier work
RAD51 S181C = assay: RAD51–TR2 disulphide cross-linking, SDS-PAGE; design: species or system human; details: RAD51 S181C 10 μM, 0.5 μM ssDNA, 1.25 μM Cy3-TR2, 2 mM hydrogen peroxide 5 min; pH 7.5; non-reducing SDS-PAGE; repeated three times
Text: To further validate our model of the RAD51–TR2 interaction, we mutated RAD51 S181 to a cysteine to enable disulphide formation with TR2 C3304, which would support its presence at the TR2-RAD51 interface, as identified in the structure.
Fig. 5 Structure-guided BRCA2 TR2 cross-linking to RAD51. A Drawing of the RAD51–TR2 interface, highlighting that amino acids BRCA2 C3304 and RAD51 S181 are spatially close, so that the RAD51 S181C mutant can form a disulphide bridge with C3304 in the TR2 peptide. B SDS-PAGE analysis of cross-linking reactions between RAD51 S181C and TR2 in the presence of hydrogen peroxide. Wild-type RAD51 and the reducing agent DTT were used as controls. Protein bands were visualised with Coomassie Blue. C Same experiment as in B, visualised with 532 nm excitation of the Cy3-labelled TR2 peptide. Experiment was repeated three times. Source data are provided as a Source Data file.
Cross-linking reactions were prepared in buffer: 25 mM HEPES pH 7.5, 150 mM NaCl, 2 mM ATP, 5 mM CaCl2, supplemented with 0.5 μM ssDNA. WT or S181C RAD51 was added to a final concentration of 10 μM and incubated for 15 minutes at room temperature. […] Each crosslinked sample was analysed by SDS-PAGE, using gel-loading dye with DTT (reducing) or without DTT (non-reducing), on a 12% Bis-Tris SDS-PAGE gel. […]

wild-type RAD51 NPFs = assay: EMSA of TR2 titration on wild-type RAD51 nucleoprotein filaments (NPFs); assay type: binding, human
Method: as §1, §2, §3, §4
D184A […] (forward), […]

DNA = details: cited from earlier work
Text: Our cryoEM maps let us model a highly conserved portion of BRCA2 TR2 that spans residues F3289 to C3304. TR2 sequence conservation extends N-terminally to our model, up to K3263. […] Indeed, the bi ...

[2] = EMSA Fig. 1C, authors' response to reviewers

With “DDQKNCKKRRALDFLSRLPLPPPVSPICTFVSPAAQKAFQPPRSCGTKY [TR2, BRCA2 TR2 peptide spanning amino acids 3260 to 3308]” the “residual TR2 binding” value (RAD51 D184A, D187A NPFs; [2]) was “retain a degree of binding”, the “reduction in TR2 binding, ssDNA versus dsDNA filaments” value (RAD51 D184A, D187A NPFs; EMSA, ssDNA compared with dsDNA) was “especially pronounced for filaments formed on ssDNA” and the “TR2 binding relative to wild-type” value (RAD51 D184A, D187A NPFs; ss- and dsDNA, 25 mM HEPES pH 7.5, 150 mM NaCl, 2 mM ATP, 5 mM CaCl2, TR2 5 min, room temperature, ssDNA performed twice, dsDNA once) was “reduction in TR2 binding proportional to the decrease in charge at RAD51’s acidic patch”. The “effect of TR2 binding on RAD51 NPFs” value [1] was “stabilisation of RAD51 NPFs and formation of filament aggregates”, the “protection of RAD51 NPFs from disassembly by BRC repeat 4” value [1] was “protection of RAD51 nucleoprotein filaments from disassembly by BRC repeat 4 of BRCA2” and the “formation of crosslinked RAD51–TR2 species” value (RAD51 S181C) was “readily detect formation of a crosslinked RAD51–TR2 species”. The “TR2 binding to wild-type RAD51 NPFs (filament formation and mobility)” value (wild-type RAD51 NPFs; 25 mM HEPES pH 7.5, 150 mM NaCl, 2 mM DTT, 2 mM ATP, 5 mM CaCl2, RAD51 + DNA 15 min, then TR2 5 min, room temperature, 0.5% agarose, fluorescein-labelled 60 nt ss- or dsDNA, ssDNA performed twice, dsDNA once) was “enhancement of filament formation accompanied by formation of larger species of reduced electrophoretic mobility”, the “bundling of TR2-bound filaments in the gel” value (wild-type RAD51 NPFs; [2]) was “do not show bundling” and the “DNA-binding activity of TR2” value (DNA) was “harbours a DNA-binding activity centred on residues 3266-KKRR-3269”.
